Patent US8133847B2, “Pyrido[2,3-B]pyrazine derivatives useful as herbicidal compounds” (Syngenta Limited, priority 2006, dated 2012)

Legend:
Assay type in all cases: in vivo
[1] = tested on: test plants (a variety of test species); assay: Example B2 herbicidal action, post-emergence, pots in glasshouse; settings: evaluated after 13 days, 100=total damage to plant, 0=no damage to plant
Solanum nigrum (SOLNI) = assay: as above; settings: Application post-emergence, evaluated after 13 days
[2] = tested on: Ipomea hederaceae (IPOHE); assay: as above; settings: Application post-emergence, evaluated after 13 days (100=total damage to plant; 0=no damage to plant)
[3] = tested on: Amaranthus retroflexus (AMARE); assay: as above; settings: Application post-emergence, evaluated after 13 days (100=total damage to plant; 0=no damage to plant)
[4] = tested on: Echinochloa crusgalli (ECHCG); assay: as above; settings: Application post-emergence, evaluated after 13 days (100=total damage to plant; 0=no damage to plant)
Setaria faberi (SETFA) = assay: as above; settings: Application post-emergence, evaluated after 13 days (100=total damage to plant; 0=no damage to plant)
[5] = tested on: Alopecurus myosuroides (ALOMY); assay: Example B3 herbicidal action, post-emergence; settings: 1000 g/ha, after 13 days, 100=total damage to plant, 0=no damage to plant
Method: (§1) Seeds of a variety of test species were sown in sterilised compost in small pots. After cultivation for seven days (post-emergence) in controlled conditions in the glasshouse (at 24/16° C., day/night; 14 hours light; 65% humidity) the plants were sprayed with 1 mg of the active ingredient, formulated in 2.5 ml acetone/water (50:50) solution, which is equivalent to 1000 g/ha. Once the foliage was dry, the pots were kept in the glasshouse (at 24/16° C., day/night; 14 hours light; 65% humidity), and were watered twice daily. After 13 days the test was evaluated (100=total damage to plant, 0=no damage to plant).

[6] = tested on: Amaranthus retroflexus (AMARE); assay: Example B3 herbicidal action, post-emergence; settings: 1000 g/ha, after 13 days, 100=total damage to plant, 0=no damage to plant
Method: as §1

[7] = tested on: Chenopodium album (CHEAL); assay: Example B3 herbicidal action, post-emergence; settings: 1000 g/ha, after 13 days, 100=total damage to plant, 0=no damage to plant
Method: as §1

[8] = tested on: Digitaria sanguinalis (DIGSA); assay: Example B3 herbicidal action, post-emergence; settings: 1000 g/ha, after 13 days, 100=total damage to plant, 0=no damage to plant
Method: as §1

`O=c1[nH]c2nccnc2c(O)c1-c1ccccc1` [Compound A22] was tested, and the “damage to the test plants” value [1] was “no damage”.
With `Cn1c(=O)c(-c2ccccc2)c(OC(=O)C(C)(C)C)c2nccnc21` [Compound C137] the “damage to plant, Solanum nigrum (SOLNI)” value (Solanum nigrum (SOLNI)) was 0, the “damage to the test plants” value [1] was “no damage” and the “damage to plant, Ipomea hederaceae (IPOHE)” value [2] was 5. For the same compound, the “damage to plant, Amaranthus retroflexus (AMARE)” value [3] was 9, the “damage to plant, Echinochloa crusgalli (ECHCG)” value [4] was 0 and the “damage to plant, Setaria faberi (SETFA)” value (Setaria faberi (SETFA)) was 0.
In the case of `CCn1c(=O)c(-c2c(F)c([N+](=O)[O-])cc(F)c2Cl)c(OC(=O)C(C)(C)C)c2nccnc21` [Compound C158], the “damage to plant, Alopecurus myosuroides (ALOMY)” value [5] is reported as 0, the “damage to plant, Amaranthus retroflexus (AMARE)” value [6] is reported as 9 and the “damage to plant, Chenopodium album (CHEAL)” value [7] is reported as 10. The “damage to plant, Digitaria sanguinalis (DIGSA)” value [8] was 0.
With `CC(C)(C)C(=O)Oc1c(-c2cc(F)c(Cl)cc2Cl)c(=O)[nH]c2nccnc12` [Compound B48] the “damage to the test plants” value [1] was “no damage”.
